Laboratory results published in ChEMBL document CHEMBL1201862, “PubChem BioAssay data set” (2004).
Active and inactive are the calls of the source.

What was measured:
X-box-binding protein 1 = X-box-binding protein 1 (Homo sapiens, UniProt P17861); format: functional, Cricetulus griseus;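 further: confirmatory dose-response counter-screen serving a CHOP assay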
[1] = molecular target: T1, Heat shock factor protein 1 (Mus musculus, UniProt P38532); assay: decrease of HSF1-responsive luciferase luminescence – cell-based, NIH3T3, dose retest, confirmation (AID 2382); format: functional;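 further: NIH3T3 fibroblasts with HSF1-driven luciferase reporter stressed by proteasome inhibitor MG132; luminescence from HSF1-driven luciferase expression after 8 hours of MG132 stress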
T1 sequence (P38532 whole entry): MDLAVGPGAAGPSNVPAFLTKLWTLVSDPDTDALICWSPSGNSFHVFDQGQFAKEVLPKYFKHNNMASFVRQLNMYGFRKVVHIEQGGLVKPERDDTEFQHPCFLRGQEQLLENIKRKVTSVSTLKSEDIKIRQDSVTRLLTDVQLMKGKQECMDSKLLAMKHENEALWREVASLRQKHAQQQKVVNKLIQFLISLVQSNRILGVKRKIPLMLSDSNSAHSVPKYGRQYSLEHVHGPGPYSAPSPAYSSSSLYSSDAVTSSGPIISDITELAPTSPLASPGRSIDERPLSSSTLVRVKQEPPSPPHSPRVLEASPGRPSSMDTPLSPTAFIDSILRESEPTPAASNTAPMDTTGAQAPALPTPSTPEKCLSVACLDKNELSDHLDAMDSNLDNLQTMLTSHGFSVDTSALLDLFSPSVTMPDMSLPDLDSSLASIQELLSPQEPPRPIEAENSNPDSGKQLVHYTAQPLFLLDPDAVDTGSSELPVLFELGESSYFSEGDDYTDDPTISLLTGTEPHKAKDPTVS

Aspartyl aminopeptidase = Aspartyl aminopeptidase (Plasmodium falciparum 3D7, UniProt Q8I2J3)
Procathepsin L = Procathepsin L (Homo sapiens, UniProt P07711)
Streptokinase A = molecular target: T2, Streptokinase A (Streptococcus pyogenes serotype M1, UniProt P10520); assay: viability-normalized secreted streptokinase activity reduction – plasminogen activation absorbance, OD405, dose response (AID 1914); format: functional, Streptococcus pyogenes M1 GAS;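 further: secreted streptokinase activity via plasminogen activation per viability signal from cell pellet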
T2 sequence (P10520 whole entry): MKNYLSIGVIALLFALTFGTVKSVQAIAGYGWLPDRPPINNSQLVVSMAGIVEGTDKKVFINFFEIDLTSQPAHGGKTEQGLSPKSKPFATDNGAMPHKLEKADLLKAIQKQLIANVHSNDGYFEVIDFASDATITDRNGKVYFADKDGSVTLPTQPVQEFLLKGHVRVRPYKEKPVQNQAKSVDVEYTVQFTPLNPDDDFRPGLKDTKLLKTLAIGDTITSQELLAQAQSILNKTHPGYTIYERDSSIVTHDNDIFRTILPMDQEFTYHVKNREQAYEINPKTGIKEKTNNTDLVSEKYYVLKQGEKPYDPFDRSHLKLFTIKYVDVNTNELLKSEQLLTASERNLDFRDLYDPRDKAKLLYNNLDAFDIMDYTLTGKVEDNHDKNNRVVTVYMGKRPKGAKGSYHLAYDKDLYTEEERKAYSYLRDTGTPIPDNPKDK

[2] = test system: Streptococcus sp. 'group A'; assay: Streptococcus pyogenes SK(-)GAS viability under kanamycin – luminescence, BacTiterGlo, confirmation, counter-screen for streptokinase expression inhibitor project, dose response (AID 1900); format: functional, organism-based
Streptococcus = assay: GAS UMAA2166 growth inhibition – luminescence, BacTiterGlo, counter-screen for streptokinase expression inhibitor project, dose response (AID 1915); format: functional, organism-based;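 further: potency for reduction of bacterial viability or growth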
Mu-type opioid receptor = Mu-type opioid receptor (Homo sapiens, UniProt P35372); format: functional, cell-based;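 further: U2OS cells with beta-arrestin recruitment to OPRM1 by beta-gal complementation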
[3] = molecular target: 5-hydroxytryptamine receptor 2A (Mus musculus, UniProt P35363); format: functional, cell-based;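 further: CHO-K1 cells with tagged receptor and beta-arrestin; agonist potency measured as compound-induced activation of the receptor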
[4] = molecular target: Acyl-homoserine lactone acylase PvdQ (Pseudomonas aeruginosa (strain LESB58), UniProt Q9I194); assay: PvdQ acylase enzyme activity blockers – biochemical, fluorescence, plate reader and imaging, cherry-picks, dose response (AID 493231)
[5] = molecular target: DNA dC->dU-editing enzyme APOBEC-3A (Homo sapiens, UniProt P31941); assay: Dose Response confirmation of small molecule APOBEC3A DNA Deaminase Inhibitors via a fluorescence-based single-stranded DNA deaminase assay. [Related pubchem assays (depositor defined):AID493011, AID493024]; format: functional
[6] = molecular target: DNA dC->dU-editing enzyme APOBEC-3G (Homo sapiens, UniProt Q9HC16); format: functional;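 further: Dose-response counterscreen measuring inhibition of APOBEC3G DNA deaminase activity, run while confirming APOBEC3A inhibitors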
[7] = molecular target: G-protein coupled receptor 55 (Homo sapiens, UniProt Q9Y2T6); assay: inhibition of LPI-stimulated GPR55 beta-arrestin translocation – imaging, U2OS, beta-arrestin-GFP, LPI agonist, primary screen (AID 2013); format: functional;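 further: antagonist potency measured as reduced agonist-driven arrestin aggregation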
H4 = assay: Luminescence Cell-Based Dose Response HTS to Identify Activators of 5'UTR Stem-Loop Driven Prion Protein mRNA Translation in H4 Neuroglioblastoma Cells. [Related pubchem assays: 1829 (Project Summary), 1814 (Primary HTS)]; format: functional; settings: Homo sapiens
Cytochrome P450 2C19 = Cytochrome P450 2C19 (Homo sapiens, UniProt P33261); assay: Cytochrome panel assay with activity outcomes. Panel member name: p450-cyp2c19 Compounds with AC50 equal or less than 10 uM are considered active; format: functional; settings: read-out: AC50
[8] = A Cell Based Secondary Assay To Explore Cytotoxicity of Compounds that Sensitize Mycobacterium Tuberculosis to Beta-Lactam Antibiotics.; format: functional
[9] = Luminescence Cell-Based Dose Confirmation HTS to Identify Activators of 5'UTR Stem-Loop Driven Alpha-Synuclein mRNA Translation in H4 Neuroglioblastoma Cells. [Related pubchem assays: 1829 (Project Summary), 1814 (Primary HTS)]; format: functional
Cytochrome P450 1A2 = molecular target: T3, Cytochrome P450 1A2 (Homo sapiens, UniProt P05177);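 further: PubChem cytochrome P450 panel assay, CYP1A2 panel member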
T3 sequence (P05177 whole entry): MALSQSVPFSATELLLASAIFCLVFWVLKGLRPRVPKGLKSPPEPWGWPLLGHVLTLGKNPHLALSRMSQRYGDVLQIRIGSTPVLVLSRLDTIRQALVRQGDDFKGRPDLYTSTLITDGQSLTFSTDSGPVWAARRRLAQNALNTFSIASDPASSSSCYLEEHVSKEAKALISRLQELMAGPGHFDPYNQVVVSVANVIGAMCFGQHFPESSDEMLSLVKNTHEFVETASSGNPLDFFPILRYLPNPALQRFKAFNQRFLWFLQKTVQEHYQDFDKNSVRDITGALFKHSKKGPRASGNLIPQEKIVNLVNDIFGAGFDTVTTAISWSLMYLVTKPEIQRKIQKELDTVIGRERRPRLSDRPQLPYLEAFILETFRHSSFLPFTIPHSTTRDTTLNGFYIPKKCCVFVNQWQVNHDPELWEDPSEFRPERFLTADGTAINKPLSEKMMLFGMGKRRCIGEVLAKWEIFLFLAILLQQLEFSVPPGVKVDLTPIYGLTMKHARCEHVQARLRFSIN

[10] = Luminescence Cell-Based Dose Response HTS to Identify Activators of Luciferase Translation or Activity in H4 […] Cells. [Related pubchem assays: 1829 (Project Summary), 1814 (Primary HTS)]; format: functional
[11] = molecular target: Eukaryotic translation initiation factor 4E (Mus musculus, UniProt P63073); assay: blockers of eIF4G binding by eIF4E – biochemical, TR-FRET, dose response (AID 855); format: functional;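 further: potency for disrupting eIF4E binding to eIF4GI seen as loss of FRET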
[12] = molecular target: T4, Tyrosine-protein phosphatase non-receptor type 7 (Homo sapiens, UniProt P35236); format: functional
T4 sequence (P35236 whole entry): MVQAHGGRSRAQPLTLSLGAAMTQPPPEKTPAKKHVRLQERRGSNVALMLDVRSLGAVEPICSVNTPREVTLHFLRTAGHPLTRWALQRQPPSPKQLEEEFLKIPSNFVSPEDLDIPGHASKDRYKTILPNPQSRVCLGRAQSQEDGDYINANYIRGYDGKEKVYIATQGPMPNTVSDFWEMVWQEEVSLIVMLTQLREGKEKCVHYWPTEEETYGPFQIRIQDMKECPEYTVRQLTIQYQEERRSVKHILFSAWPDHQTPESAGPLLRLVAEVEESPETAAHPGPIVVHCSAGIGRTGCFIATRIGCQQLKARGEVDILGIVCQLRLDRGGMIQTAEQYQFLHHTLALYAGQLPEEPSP

[13] = molecular target: Glyceraldehyde-3-phosphate dehydrogenase (Homo sapiens, UniProt P04406)
[14] = molecular target: T5, Dual specificity protein phosphatase 6 (Rattus norvegicus, UniProt Q64346); format: functional
T5 sequence (Q64346 whole entry): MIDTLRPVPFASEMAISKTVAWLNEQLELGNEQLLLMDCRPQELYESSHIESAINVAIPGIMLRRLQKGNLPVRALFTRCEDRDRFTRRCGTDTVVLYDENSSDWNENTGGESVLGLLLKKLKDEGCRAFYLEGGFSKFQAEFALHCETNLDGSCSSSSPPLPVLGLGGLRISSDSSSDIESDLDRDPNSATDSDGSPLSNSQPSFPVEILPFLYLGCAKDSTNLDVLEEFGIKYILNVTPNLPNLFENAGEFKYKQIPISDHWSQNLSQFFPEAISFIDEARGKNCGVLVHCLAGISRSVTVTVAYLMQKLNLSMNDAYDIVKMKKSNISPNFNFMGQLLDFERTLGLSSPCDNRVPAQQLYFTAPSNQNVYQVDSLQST

[15] = molecular target: T5, Dual specificity protein phosphatase 6
SUMO-activating enzyme [16] = molecular target: T6, SUMO-activating enzyme (Homo sapiens, UniProt Q9UBT2); assay: blockers of SAE1/SAE2–UBC9 SUMO transfer – biochemical, HTRF, uHTS, primary screen (AID 2006); format: protein-complex assay
Large T antigen = Large T antigen (Simian virus 40, UniProt P03070); format: functional, Betapolyomavirus macacae;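 further: Confirmatory-stage PubChem screen for compounds that inhibit SV40 T antigen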
[17] = viability loss in THP-1 monocytes – THP-1 cells, cytotoxicity control for Vif-APOBEC3G degradation inhibitor project, dose response (AID 1117359); format: functional; settings: THP-1
SUMO-activating enzyme [18] = molecular target: T6, SUMO-activating enzyme; assay: blockers of UBC9-mediated SUMO conjugation – biochemical, AlphaScreen, SUMOylation inhibitor project, confirmation (AID 2018); format: functional
Leucine aminopeptidase = molecular target: T7, Leucine aminopeptidase (Plasmodium falciparum 3D7, UniProt Q8IL11); assay: P. falciparum M17LAP inhibitors, primary screen, biochemical, fluorogenic H-Leu-NHMec substrate, 1536-well (AID 1619); format: functional
T7 sequence (Q8IL11 whole entry): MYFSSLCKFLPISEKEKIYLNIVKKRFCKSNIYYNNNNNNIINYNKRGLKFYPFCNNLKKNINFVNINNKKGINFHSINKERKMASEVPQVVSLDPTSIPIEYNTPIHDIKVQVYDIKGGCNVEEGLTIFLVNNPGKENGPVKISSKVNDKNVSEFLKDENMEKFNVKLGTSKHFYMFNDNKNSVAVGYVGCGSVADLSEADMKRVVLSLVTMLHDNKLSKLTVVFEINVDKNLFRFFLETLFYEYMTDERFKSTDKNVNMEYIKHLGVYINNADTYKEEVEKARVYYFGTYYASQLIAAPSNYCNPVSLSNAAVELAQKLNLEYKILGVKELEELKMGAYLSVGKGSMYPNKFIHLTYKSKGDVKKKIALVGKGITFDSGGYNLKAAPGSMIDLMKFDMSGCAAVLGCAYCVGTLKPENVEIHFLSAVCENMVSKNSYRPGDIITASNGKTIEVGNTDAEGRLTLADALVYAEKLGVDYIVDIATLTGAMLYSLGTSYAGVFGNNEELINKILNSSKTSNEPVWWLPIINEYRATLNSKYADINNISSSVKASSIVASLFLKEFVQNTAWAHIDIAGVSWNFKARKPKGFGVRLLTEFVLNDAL

Estrogen receptor beta = Estrogen receptor beta (Homo sapiens, UniProt Q92731); assay: blockers of SRC-3 recruitment to ERβ – biochemical, ELISA, streptavidin-HRP readout, orthogonal assay, confirmation (AID 1060)
[19] = molecular target: Induced myeloid leukemia cell differentiation protein Mcl-1 (Homo sapiens, UniProt Q07820); format: functional
ORF 73 = ORF 73 (Human herpesvirus 8, UniProt O40947); assay: KSHV LANA DNA-binding disruption – biochemical, fluorescence polarization, cherry-picked samples, dose response (AID 504725); parameters: species or system Human gammaherpesvirus 8;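 further: fluorescence polarization of a labeled DNA duplex reporting LANA DNA binding; potency is for inhibitors that block LANA binding to the DNA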

Sequence of Aspartyl aminopeptidase (Q8I2J3 whole entry): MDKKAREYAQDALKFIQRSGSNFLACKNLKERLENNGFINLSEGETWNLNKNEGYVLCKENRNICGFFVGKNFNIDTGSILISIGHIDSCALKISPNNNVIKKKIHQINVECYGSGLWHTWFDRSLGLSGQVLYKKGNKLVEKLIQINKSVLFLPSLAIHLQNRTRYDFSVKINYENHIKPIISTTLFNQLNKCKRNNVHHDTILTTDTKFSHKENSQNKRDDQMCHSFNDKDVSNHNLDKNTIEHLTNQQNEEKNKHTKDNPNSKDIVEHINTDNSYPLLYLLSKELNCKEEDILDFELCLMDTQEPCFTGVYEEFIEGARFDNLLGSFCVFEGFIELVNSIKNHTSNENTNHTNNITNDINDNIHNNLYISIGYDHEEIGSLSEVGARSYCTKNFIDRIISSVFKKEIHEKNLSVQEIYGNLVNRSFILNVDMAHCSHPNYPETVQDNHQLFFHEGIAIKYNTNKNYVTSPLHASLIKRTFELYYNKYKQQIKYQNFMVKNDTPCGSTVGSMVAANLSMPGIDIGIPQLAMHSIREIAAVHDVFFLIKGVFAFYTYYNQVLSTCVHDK
Sequence of X-box-binding protein 1 (P17861 whole entry): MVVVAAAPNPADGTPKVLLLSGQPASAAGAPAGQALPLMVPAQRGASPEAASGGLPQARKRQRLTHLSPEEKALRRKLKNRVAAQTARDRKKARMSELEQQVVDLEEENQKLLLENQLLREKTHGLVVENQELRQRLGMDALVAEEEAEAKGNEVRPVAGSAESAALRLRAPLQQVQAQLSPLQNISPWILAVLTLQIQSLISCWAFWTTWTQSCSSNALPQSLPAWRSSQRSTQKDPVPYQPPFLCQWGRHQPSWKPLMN
Sequence of Acyl-homoserine lactone acylase PvdQ (Q9I194 24-193 limits assumed): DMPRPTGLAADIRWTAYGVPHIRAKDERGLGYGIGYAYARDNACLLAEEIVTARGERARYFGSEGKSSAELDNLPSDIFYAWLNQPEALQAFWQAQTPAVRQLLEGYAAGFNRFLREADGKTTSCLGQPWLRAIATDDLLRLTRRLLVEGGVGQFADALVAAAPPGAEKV
Sequence of Acyl-homoserine lactone acylase PvdQ (Q9I194 217-762 limits assumed): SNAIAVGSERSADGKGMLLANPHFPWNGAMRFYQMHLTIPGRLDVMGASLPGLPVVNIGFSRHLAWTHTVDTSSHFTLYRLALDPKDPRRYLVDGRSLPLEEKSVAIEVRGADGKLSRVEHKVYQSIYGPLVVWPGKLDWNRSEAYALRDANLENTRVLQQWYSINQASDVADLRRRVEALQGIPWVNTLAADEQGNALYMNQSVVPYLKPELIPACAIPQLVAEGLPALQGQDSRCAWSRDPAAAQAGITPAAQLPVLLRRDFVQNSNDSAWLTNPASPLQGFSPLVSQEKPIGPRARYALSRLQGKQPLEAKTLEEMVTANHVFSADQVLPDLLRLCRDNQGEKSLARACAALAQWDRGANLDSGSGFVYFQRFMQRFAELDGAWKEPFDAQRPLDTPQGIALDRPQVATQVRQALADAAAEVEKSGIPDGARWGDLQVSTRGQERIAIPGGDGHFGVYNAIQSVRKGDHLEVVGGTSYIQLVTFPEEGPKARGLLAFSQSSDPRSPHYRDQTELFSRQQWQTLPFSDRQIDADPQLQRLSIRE
Sequence of Procathepsin L (P07711 whole entry): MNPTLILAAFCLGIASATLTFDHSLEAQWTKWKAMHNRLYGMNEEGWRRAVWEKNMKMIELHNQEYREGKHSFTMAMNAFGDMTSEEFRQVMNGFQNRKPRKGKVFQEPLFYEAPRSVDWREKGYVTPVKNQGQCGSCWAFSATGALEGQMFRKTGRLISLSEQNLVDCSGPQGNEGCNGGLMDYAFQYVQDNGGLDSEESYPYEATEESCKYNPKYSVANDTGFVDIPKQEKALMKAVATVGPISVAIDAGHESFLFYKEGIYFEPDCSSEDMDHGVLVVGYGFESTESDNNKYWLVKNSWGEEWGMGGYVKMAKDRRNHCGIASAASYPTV
Sequence of G-protein coupled receptor 55 (Q9Y2T6 whole entry): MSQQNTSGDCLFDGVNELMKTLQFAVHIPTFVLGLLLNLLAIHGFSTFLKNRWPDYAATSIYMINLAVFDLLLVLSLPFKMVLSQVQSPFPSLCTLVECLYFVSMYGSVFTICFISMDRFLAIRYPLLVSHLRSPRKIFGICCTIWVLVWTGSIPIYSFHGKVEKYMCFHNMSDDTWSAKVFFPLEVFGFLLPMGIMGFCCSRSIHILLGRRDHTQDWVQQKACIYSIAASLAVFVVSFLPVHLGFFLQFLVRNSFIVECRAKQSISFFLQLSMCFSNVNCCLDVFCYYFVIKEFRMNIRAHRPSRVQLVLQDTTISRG
T6 sequence (Q9UBE0 whole entry): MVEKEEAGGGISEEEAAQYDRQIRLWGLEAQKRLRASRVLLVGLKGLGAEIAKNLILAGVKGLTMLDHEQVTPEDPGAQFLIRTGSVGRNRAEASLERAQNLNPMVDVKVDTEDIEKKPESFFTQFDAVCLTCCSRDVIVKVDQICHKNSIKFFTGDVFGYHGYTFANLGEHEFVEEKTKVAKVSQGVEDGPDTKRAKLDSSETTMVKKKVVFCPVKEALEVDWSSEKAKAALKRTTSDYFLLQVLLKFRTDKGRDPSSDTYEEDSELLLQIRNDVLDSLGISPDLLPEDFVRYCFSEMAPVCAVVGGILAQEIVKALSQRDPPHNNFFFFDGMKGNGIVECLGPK
T6 sequence (Q9UBT2 whole entry): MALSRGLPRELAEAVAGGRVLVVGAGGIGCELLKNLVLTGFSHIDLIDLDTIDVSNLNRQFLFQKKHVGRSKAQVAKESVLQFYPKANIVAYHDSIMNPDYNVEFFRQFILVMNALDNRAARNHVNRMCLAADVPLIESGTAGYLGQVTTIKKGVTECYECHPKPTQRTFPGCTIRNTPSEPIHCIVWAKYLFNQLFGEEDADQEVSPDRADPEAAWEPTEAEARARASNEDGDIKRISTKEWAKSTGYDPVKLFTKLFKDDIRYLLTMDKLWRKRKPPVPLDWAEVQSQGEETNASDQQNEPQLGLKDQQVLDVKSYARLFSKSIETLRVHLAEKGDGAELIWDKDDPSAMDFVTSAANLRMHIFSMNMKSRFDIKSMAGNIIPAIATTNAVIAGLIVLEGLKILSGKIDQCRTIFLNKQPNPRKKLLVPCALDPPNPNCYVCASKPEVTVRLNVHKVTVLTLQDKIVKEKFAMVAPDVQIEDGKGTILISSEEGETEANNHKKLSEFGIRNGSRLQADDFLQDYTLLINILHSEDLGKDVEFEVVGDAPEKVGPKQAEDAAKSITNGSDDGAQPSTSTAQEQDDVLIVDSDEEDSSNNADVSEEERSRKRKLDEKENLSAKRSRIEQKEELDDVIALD
Sequence of Estrogen receptor beta (Q92731 whole entry): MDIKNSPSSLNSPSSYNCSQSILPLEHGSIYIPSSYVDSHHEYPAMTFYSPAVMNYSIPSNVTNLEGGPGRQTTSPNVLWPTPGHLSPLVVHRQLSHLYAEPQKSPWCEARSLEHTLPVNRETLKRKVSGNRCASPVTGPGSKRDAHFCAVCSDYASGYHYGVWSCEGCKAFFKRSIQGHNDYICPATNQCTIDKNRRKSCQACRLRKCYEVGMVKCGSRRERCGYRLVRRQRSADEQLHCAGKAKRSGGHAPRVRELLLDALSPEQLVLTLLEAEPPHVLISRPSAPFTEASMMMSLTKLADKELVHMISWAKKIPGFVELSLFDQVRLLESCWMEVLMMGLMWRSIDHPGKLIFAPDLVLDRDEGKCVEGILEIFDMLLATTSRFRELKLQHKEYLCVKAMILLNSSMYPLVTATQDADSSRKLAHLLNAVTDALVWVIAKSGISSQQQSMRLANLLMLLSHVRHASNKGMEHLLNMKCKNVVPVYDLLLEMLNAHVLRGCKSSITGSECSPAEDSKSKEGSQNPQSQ
Sequence of Eukaryotic translation initiation factor 4E (P63073 whole entry): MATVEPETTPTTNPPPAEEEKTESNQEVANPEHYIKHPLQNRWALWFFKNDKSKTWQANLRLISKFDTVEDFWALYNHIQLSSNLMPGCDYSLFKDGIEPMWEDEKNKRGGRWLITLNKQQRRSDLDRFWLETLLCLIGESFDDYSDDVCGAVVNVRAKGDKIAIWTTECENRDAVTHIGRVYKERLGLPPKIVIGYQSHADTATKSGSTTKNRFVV
Sequence of Mu-type opioid receptor (P35372 whole entry): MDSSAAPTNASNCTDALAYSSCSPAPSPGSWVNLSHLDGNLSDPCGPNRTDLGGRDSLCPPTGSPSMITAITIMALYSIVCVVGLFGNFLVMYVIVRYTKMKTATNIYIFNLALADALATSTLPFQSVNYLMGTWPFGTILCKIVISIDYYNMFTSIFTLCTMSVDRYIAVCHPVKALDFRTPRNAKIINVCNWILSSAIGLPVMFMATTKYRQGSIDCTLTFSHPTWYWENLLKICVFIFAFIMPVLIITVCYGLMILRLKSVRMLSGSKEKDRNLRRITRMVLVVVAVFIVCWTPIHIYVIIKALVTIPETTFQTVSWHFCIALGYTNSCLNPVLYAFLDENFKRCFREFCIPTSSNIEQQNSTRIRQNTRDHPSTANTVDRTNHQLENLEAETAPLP
Sequence of Cytochrome P450 2C19 (P33261 whole entry): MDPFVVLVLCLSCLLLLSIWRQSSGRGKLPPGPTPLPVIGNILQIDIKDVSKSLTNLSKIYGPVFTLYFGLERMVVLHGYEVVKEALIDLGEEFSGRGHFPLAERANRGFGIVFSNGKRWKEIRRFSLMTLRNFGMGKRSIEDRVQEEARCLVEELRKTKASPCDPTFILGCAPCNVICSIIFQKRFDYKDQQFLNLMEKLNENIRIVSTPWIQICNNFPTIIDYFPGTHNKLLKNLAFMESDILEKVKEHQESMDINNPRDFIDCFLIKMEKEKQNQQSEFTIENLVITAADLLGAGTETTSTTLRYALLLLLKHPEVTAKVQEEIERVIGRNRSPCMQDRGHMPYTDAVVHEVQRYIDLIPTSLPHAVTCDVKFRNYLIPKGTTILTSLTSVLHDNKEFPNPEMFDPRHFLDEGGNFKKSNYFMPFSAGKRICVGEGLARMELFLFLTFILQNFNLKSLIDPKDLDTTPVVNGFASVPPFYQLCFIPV

Cc1cc(C)c2c(c1)/C(=N/NS(=O)(=O)c1ccc(Br)cc1)CCC2
Absolute IC50 (XBP1) (X-box-binding protein 1): 10 µM
EC50 [1]: > 195 µM (not active)

O=C(O)CSc1nnc[nH]1
IC50 (Aspartyl aminopeptidase): 0.202 µM (active)
IC50 (Procathepsin L): > 59.6 µM (not active)

Cc1ccc(Nc2nc(N)nc(CN3CCN(c4ccccc4)CC3)n2)cc1Cl
EC50 (Streptokinase A): > 150 µM (not active)
EC50 [2]: 8.53 µM (active)
Absolute IC50 (XBP1) (X-box-binding protein 1): 10 µM
EC50 (Streptococcus): 111 µM (active)
EC50 (Mu-type opioid receptor): 92.5 µM (inactive)
EC50 [3]: 76.1 µM (inactive)

CCCOc1ccc(C(=O)CCC(=O)OCC(=O)Nc2cccc(S(N)(=O)=O)c2)cc1
AC50 [4]: > 100 µM (inactive)

CSCC[C@H](NC(=O)c1ccc(Cl)c(S(=O)(=O)N2CCCC2)c1)c1nc2ccccc2[nH]1
IC50 [5]: 5.06 µM (active)
IC50 [6]: 4.93 µM (active)

CCOC(=O)c1c(-c2ccccc2)oc2ccc(O)c(CN3CCN(C)CC3)c12
IC50 [7]: 6.85 µM (active)

O=C(Oc1oc(-c2ccco2)nc1/C=N/c1ccc(Cl)cc1)c1ccco1
EC50 (H4): 31.7 µM (active)
AC50 (Cytochrome P450 2C19): 14.1 µM (inconclusive)
CC50 [8]: > 40 µM (active)
EC50 [9]: 14.3 µM (active)
AC50 (Cytochrome P450 1A2): 15.8 µM (inconclusive)
EC50 [10]: 21.7 µM (active)

O=C(Nc1ccc(Br)cc1Cl)Nn1cnnc1
IC50 (Aspartyl aminopeptidase): 0.711 µM (active)
IC50 (Procathepsin L): > 59.6 µM (not active)

N#Cc1cccnc1Nc1ccc(Cl)cc1
AC50 [4]: 14.2 µM (active)

C=CCn1c(N)cc(=O)nc1SCC(=O)Nc1cccc2ccccc12
IC50 [11]: > 64 µM (inactive)

COc1cc(C2c3sc(=O)[nH]c3SC3C4CCC(C4)C23)ccc1O (configuration not stated)
IC50 [7]: 0.672 µM (active)

Cc1ccc2c(c1)NC(C(=O)O)NS2(=O)=O (configuration not stated)
IC50 [12]: 3.35 µM (active)
IC50 [13]: > 100 µM (not active)
IC50 [14]: 56.9 µM (active)
IC50 [15]: 52.5 µM (active)

O=C1N=C(Nc2ccc(O)cc2)S/C1=C\C=C\c1ccco1
IC50 (SUMO-activating enzyme [16]): 30.8 µM (active)
IC50 (Large T antigen): 31.5 µM (active)
CC50 [17]: 2.84 µM (active)
IC50 (SUMO-activating enzyme [18]): 2.59 µM (active)

Cc1cccc(C)c1NC(=O)CSc1nnc(-c2ccco2)c(-c2ccco2)n1
IC50 (Leucine aminopeptidase): 18.9 µM (active)
IC50 (Estrogen receptor beta): 2 µM (not active)
IC50 [19]: 4.92 µM (active)
AC50 (ORF 73): 160 µM (active)
